Reference: BindingDB's records for patent US20250197396 (Lieber Institute, 2025)

Biological target: Inositol hexakisphosphate kinase 1 (Homo sapiens, UniProt Q92551)
Test: Not found
Description: Not found

Chain of Inositol hexakisphosphate kinase 1 (Q92551 whole entry): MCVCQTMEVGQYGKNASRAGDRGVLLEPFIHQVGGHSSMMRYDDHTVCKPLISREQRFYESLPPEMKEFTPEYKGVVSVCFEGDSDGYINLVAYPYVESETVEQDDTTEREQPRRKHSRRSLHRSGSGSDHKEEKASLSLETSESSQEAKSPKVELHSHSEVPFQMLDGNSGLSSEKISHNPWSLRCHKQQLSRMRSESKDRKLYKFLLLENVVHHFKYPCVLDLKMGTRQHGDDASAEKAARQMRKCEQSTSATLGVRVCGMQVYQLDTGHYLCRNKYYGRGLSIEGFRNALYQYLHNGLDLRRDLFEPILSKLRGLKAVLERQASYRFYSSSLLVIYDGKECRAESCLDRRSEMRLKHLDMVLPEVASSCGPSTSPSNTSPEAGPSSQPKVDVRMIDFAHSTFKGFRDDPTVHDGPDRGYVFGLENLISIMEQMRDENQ

O=C(O)c1ccc2c(c1)C1(CCN(Cc3ncc(Cl)cc3Cl)CC1)C(=O)N2 [US20250197396, Compound 18a]
IC50: < 300 nM
